# According to patent US7432291B2, “Ether derivatives” (Hoffman-La Roche Inc., priority 2004, dated 2008):
# Test system: not given
# Assay: not given
# Conditions: not given
row,melting point [°C],SMILES
1,119 to 120,"Cc1cc(OCc2coc(C=Cc3ccc(OC(F)F)cc3)n2)ccc1COCCn1ccnn1 [Example 7, 1-[2-(4-{2-[2-(4-Difluoromethoxy-phenyl)-vinyl]-oxazol-4-ylmethoxy}-2-methyl-benzyloxy)-ethyl]-1H-[1,2,3]triazole]"
2,102,"Cc1cc(OCc2coc(C=Cc3ccc(SC(F)(F)F)cc3)n2)ccc1COCCn1ccnn1 [Example 8, 1-[2-(2-Methyl-4-{2-[2-(4-trifluoromethylsulfanyl-phenyl)-vinyl]-oxazol-4-ylmethoxy}-benzyloxy)-ethyl]-1H-[1,2,3]triazole]"
3,84 to 85,"Cc1cc(OCc2coc(C=Cc3ccc(OC(F)(F)F)cc3)n2)ccc1COCCn1ccnn1 [Example 9, 1-[2-(2-Methyl-4-{2-[2-(4-trifluoromethoxy-phenyl)-vinyl]-oxazol-4-ylmethoxy}-benzyloxy)-ethyl]-1H-[1,2,3]triazole]"

# Target: T1, HER2 (pY 1248) in Calu3 cells (Homo sapiens, UniProt P04626)
# T1 construct: endogenous in cells; host or cells: Calu-3 (HTB-55)
# Assay: Inhibition of HER2 phosphorylation in Calu3 tumor cell line
# Assay type: cell-based
# Conditions: Calu-3, compound concentration 1 μM, 16 h incubation, percentage of the DMSO treated control, read-out: Percent inhibition of HER2-phosphorylation
# Procedure: Inhibition of HER2 Phosphorylation in Calu3 Tumor Cell Line
# 2×10^5 Calu3 cells [Calu-3 (HTB-55) cells available from ATTC] per well were plated 12-well plate. After 4 days cells were starved for 16 h in DMEM/0.5% FCS/1% Glutamine. During this time cells were incubated with 1 μM of the compound. Afterwards cells were lysed in lyses buffer containing 1% Triton, 10% Glycerol, 1 mM EGTA, 1.5 mM MgCl2, 150 mM NaCl, 50 mM Hepes pH 7.5, 1 mM PMSF, 10 μg/mL Aprotinin and […] Orthovanadate. Cell lysates were analyzed on a SDS PAGE and after transfer to a nitrocellulose membrane detected with an antibody specifically recognizing the pY 1248 in HER2. Inhibition of HER2 phosphorylation is calculated as percentage of the DMSO treated control. This percentage was calculated according to the following formula: Inhibition in %=100−(Phosphorylated-HER2-Signal of Test Sample*100/Phosphorylated-HER2-Signal DMSO-control).
# T1 sequence (P04626 23-1255): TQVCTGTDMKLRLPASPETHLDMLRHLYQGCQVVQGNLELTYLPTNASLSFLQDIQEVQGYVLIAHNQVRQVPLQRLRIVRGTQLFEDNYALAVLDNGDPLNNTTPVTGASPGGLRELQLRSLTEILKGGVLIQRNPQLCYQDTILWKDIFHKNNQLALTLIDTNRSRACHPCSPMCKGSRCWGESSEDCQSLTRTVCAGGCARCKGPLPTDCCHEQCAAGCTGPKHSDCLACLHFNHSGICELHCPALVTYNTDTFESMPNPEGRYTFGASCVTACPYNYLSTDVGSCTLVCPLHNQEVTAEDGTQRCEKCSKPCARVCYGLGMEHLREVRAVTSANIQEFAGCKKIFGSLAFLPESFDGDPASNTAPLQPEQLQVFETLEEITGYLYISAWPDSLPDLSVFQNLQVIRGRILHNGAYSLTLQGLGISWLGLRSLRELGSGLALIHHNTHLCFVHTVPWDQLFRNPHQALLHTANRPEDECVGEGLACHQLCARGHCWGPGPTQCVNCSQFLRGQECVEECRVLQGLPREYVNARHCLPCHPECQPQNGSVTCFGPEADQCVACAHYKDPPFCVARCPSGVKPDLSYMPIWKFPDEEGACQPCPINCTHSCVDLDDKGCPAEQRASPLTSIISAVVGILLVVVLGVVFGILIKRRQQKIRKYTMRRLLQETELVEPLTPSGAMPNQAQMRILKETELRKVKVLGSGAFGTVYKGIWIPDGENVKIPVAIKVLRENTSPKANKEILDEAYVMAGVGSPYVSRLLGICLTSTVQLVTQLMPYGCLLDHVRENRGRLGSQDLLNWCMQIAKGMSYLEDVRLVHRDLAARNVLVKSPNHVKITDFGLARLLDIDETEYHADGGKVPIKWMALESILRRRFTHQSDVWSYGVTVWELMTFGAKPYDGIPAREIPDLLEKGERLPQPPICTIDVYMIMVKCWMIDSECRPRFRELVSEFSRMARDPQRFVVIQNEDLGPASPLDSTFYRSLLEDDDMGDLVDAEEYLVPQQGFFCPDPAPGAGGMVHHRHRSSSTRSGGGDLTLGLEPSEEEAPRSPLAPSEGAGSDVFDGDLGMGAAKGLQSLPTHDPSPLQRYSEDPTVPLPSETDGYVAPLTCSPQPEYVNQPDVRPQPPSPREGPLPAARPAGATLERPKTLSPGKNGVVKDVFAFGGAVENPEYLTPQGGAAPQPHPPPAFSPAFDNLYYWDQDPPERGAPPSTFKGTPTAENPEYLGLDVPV
row,inhibition at 1 µM [%],SMILES
1,69.6,"FC(F)Oc1ccc(/C=C/c2nc(COc3ccc(COCCn4ccnn4)cc3)co2)cc1 [example 1, 1-[2-(4-{2-[2-(E)-(4-Difluoromethoxy-phenyl)-vinyl]-oxazol-4-ylmethoxy}-benzyloxy)-ethyl]-1H-[1,2,3]triazole]"
2,85.8,"FC1(F)Oc2ccc(/C=C/c3nc(COc4ccc(COCCn5ccnn5)cc4)co3)cc2O1 [example 2, 1-[2-(4-{2-[2-(E)-(2,2-Difluoro-benzo[1,3]dioxol-5-yl)-vinyl]-oxazol-4-ylmethoxy}-benzyloxy)-ethyl]-1H-[1,2,3]triazole]"
3,73.4,"FC(F)(F)Sc1ccc(/C=C/c2nc(COc3ccc(COCCn4ccnn4)cc3)co2)cc1 [example 3, 1-[2-(4-{2-[2-(E)-(4-Trifluoromethylsulfanyl-phenyl)-vinyl]-oxazol-4-ylmethoxy}-benzyloxy)-ethyl]-1H-[1,2,3]triazole]"
4,78.6,"FC(F)(F)Oc1ccc(/C=C/c2nc(COc3ccc(COCCn4ccnn4)cc3)co2)cc1 [example 4, 1-[2-(4-{2-[2-(E)-(4-Trifluoromethoxy-phenyl)-vinyl]-oxazol-4-ylmethoxy}-benzyloxy)-ethyl]-1H-[1,2,3]triazole]"
5,54,"FC(F)(F)c1ccc(/C=C/c2nc(COc3ccc(COCCn4ccnn4)cc3)co2)cc1 [reference compound 2, 1-[2-(4-{2-[(E)-2-(4-Trifluoromethyl-phenyl)-vinyl]-oxazol-4-ylmethoxy}-benzyloxy)-ethyl]-1H-[1,2,3]triazole, reference compound]"
